Counter-ions that a name gives are not always drawn. Like-named read-outs stand apart in the source and are kept apart here. One block for each molecule: values may come before it. Where a SMILES comes first, the peptide text is derived from it.
Experiments:
[1] = at 25° C.; cited from earlier work
[2] = molecular target: T1, human plasmin (Homo sapiens, UniProt P00747); assay: Plasmin precipitation study in buffer solutions (PBS, pH of about 7.4); assay type: physicochemical; settings: for Concentration Range Tested That Did Not Prevent Precipitation at pH of About 7.4: plasmin 1 mg/ml
T1 construct: which cleave a single-chain plasminogen molecule at the Arg^560 -Val^561 peptide bond, producing active plasmin; purchased Talecris, Inc. (Research Triangle Park, North Carolina)
Procedure: This acidified, lyophilized plasmin was reconstituted with 0.9% (by weight) NaCl solution to a concentration of 10 mg/ml. […] Combinations of ε-aminocaproic acid and gelatin or glycerin were also tested. The concentration of plasmin in the additive-containing buffer was 1 mg/ml.

[3] = buffered acidified water, cited from earlier work
[4] = single additive, pH of about 7.4, plasmin 1 mg/ml, observed within 2 hours

Molecule: 3-(N,N-bis{2-hydroxyethyl}amino)-2-hydroxypropane [DIPSO]
pKa [1]: 7.52

Molecule: NCCCCC(=O)O [5-aminovaleric acid]
Minimum Concentration of Additive Required to Prevent Visually Observed Plasmin Precipitation [2, 4]: 1 mM

Molecule: NCCCCCCC(=O)O [7-aminoheptanoic acid]
Minimum Concentration of Additive Required to Prevent Visually Observed Plasmin Precipitation [2, 4]: 5 mM

Molecule: O=S(=O)(O)CCNC1CCCCC1 [CHES]
pKa [1]: 9.5

Molecule: OC[C@@H](O)[C@@H](O)[C@H](O)[C@@H](O)CO [D-sorbitol]
Minimum Concentration of Additive Required to Prevent Visually Observed Plasmin Precipitation [2, 4]: 12% (w/v)

Molecule: N=C(N)NCCC[C@H](N)C(=O)O [L-arginine]
Minimum Concentration of Additive Required to Prevent Visually Observed Plasmin Precipitation [2, 4]: 50 mM

Molecule: CSCC[C@H](N)C(=O)O [L-methionine]
Concentration Range Tested That Did Not Prevent Precipitation at pH of About 7.4 ([2]; observed within 2 hours): 0.2%

Molecule: O=S(=O)(O)CCCCN1CCOCC1 [MOBS, 4-{N-morpholino}butanesulfonic acid]
pKa [1]: 7.6

Molecule: CN(C)CC(=O)O [N,N-dimethylglycine]
Concentration Range Tested That Did Not Prevent Precipitation at pH of About 7.4 ([2]; observed within 2 hours): 0.5-1 M

Molecule: CC(=O)N[C@@H](CCCNC(=N)N)C(=O)O [N-α-acetyl-L-arginine]
Minimum Concentration of Additive Required to Prevent Visually Observed Plasmin Precipitation [2, 4]: 50 mM

Molecule: O=S(=O)(O)CC(O)CNC(CO)(CO)CO (stereo not shown) [TAPSO, 2-hydroxy-3{tris(hydroxymethyl)methylamino}-1-propanesulfonic acid]
pKa [1]: 7.61

Molecule: O=S(=O)(O)CCNC(CO)(CO)CO [TES, N-tris{hydroxymethyl}-methyl-2-aminoethanesulfonic acid]
pKa [1]: 7.4

Molecule: O=C(O)CCCCC(=O)O [adipic acid]
Concentration Range Tested That Did Not Prevent Precipitation at pH of About 7.4 ([2]; observed within 2 hours): 50 mM

Molecule: C[N+](C)(C)CC(=O)O [betaine, (carboxymethyl)trimethylammonium inner salt]
Minimum Concentration of Additive Required to Prevent Visually Observed Plasmin Precipitation [2, 4]: 0.2 M

Molecule: OCC(O)CO [glycerin]
Minimum Concentration of Additive Required to Prevent Visually Observed Plasmin Precipitation ([2]; Test No. 10: glycerin in combination with 0.1 mM ε-aminocaproic acid, pH of about 7.4): 6% (v/v)
Minimum Concentration of Additive Required to Prevent Visually Observed Plasmin Precipitation [2, 4]: 10% (by weight)

Molecule: NCC(=O)O [glycine]
Concentration Range Tested That Did Not Prevent Precipitation at pH of About 7.4 ([2]; observed within 2 hours): 0.1 M

Molecule: NCC(=O)NCC(=O)O [glycylglycine] (H-Gly-Gly-OH)
Minimum Concentration of Additive Required to Prevent Visually Observed Plasmin Precipitation [2, 4]: 10 mM

Molecule: O=S(=O)([O-])[O-].[Na+].[Na+] [sodium sulfate]
Concentration Range Tested That Did Not Prevent Precipitation at pH of About 7.4 ([2]; observed within 2 hours): 0.3-0.6 M

B1: plasmin: serine proteinase, formulated in buffered acidified water (reversibly inactive acidified plasmin) (protein, UniProt P00747 20-580; P00747 581-810, looked up)
Plasmin heavy chain A: EPLDDYVNTQGASLFSVTKKQLGAGSIEECAAKCEEDEEFTCRAFQYHSKEQQCVIMAENRKSSIIIRMRDVVLFEKKVYLSECKTGNGKNYRGTMSKTKNGITCQKWSSTSPHRPRFSPATHPSEGLEENYCRNPDNDPQGPWCYTTDPEKRYDYCDILECEEECMHCSGENYDGKISKTMSGLECQAWDSQSPHAHGYIPSKFPNKNLKKNYCRNPDRELRPWCFTTDPNKRWELCDIPRCTTPPPSSGPTYQCLKGTGENYRGNVAVTVSGHTCQHWSAQTPHTHNRTPENFPCKNLDENYCRNPDGKRAPWCHTTNSQVRWEYCKIPSCDSSPVSTEQLAPTAPPELTPVVQDCYHGDGQSYRGTSSTTTTGKKCQSWSSMTPHRHQKTPENYPNAGLTMNYCRNPDADKGPWCFTTDPSVRWEYCNLKKCSGTEASVVAPPPVVLLPDVETPSEEDCMFGNGKGYRGKRATTVTGTPCQDWAAQEPHRHSIFTPETNPRAGLEKNYCRNPDGDVGGPWCYTTNPRKLYDYCDVPQCAAPSFDCGKPQVEPKKCPGR
Plasmin light chain B: VVGGCVAHPHSWPWQVSLRTRFGMHFCGGTLISPEWVLTAAHCLEKSPRPSSYKVILGAHQEVNLEPHVQEIEVSRLFLEPTRKDIALLKLSSPAVITDKVIPACLPSPNYVVADRTECFITGWGETQGTFGAGLLKEAQLPVIENKVCNRYEFLNGRVQSTELCAGHLAGGTDSCQGDSGGPLVCFEKDKYILQGVTSWGLGCARPNKPGVYVRVSRFVTWIEGVMRNN
modifications: Plasmin acidified formulation
storage stability ([3]; 4° C.): stable for at least nine months
storage stability ([3]; room temperature): stable for at least two months

Further lines, results first:

Concentration Range Tested That Did Not Prevent Precipitation at pH of About 7.4 ([2]; observed within 2 hours): 50 mM
Molecule: O=C(O)C(=O)O [oxalic acid]

Concentration Range Tested That Did Not Prevent Precipitation at pH of About 7.4 ([2]; observed within 2 hours): 2-20% v/v
Molecule: CC(O)CO (stereo not shown) [propylene glycol]

Minimum Concentration of Additive Required to Prevent Visually Observed Plasmin Precipitation [2, 4]: 1 M
Molecule: CNCC(=O)O [sarcosine, N-methylglycine]

Minimum Concentration of Additive Required to Prevent Visually Observed Plasmin Precipitation [2, 4]: 0.5 mM
Molecule: NC[C@H]1CC[C@H](C(=O)O)CC1 [tranexamic acid, trans-4-(aminomethyl)cyclohexanecarboxylic acid, reference compound]

Concentration Range Tested That Did Not Prevent Precipitation at pH of About 7.4 ([2]; observed within 2 hours): 10%
Molecule: OC[C@H]1O[C@H](O[C@H]2O[C@H](CO)[C@@H](O)[C@H](O)[C@H]2O)[C@H](O)[C@@H](O)[C@@H]1O [trehalose]

Minimum Concentration of Additive Required to Prevent Visually Observed Plasmin Precipitation [2, 4]: 10 mM
Molecule: NCC(=O)NCC(=O)NCC(=O)O [triglycine] (H-Gly-Gly-Gly-OH)

Minimum Concentration of Additive Required to Prevent Visually Observed Plasmin Precipitation [2, 4]: 5 mM
Molecule: NCCCC(=O)O [γ-aminobutyric acid]

Minimum Concentration of Additive Required to Prevent Visually Observed Plasmin Precipitation ([2]; Test No. 9: ε-aminocaproic acid in combination with gelatin 0.3% (w/v), pH of about 7.4): 0.1 mM
Minimum Concentration of Additive Required to Prevent Visually Observed Plasmin Precipitation ([2]; Test No. 10: ε-aminocaproic acid in combination with glycerin 6% (v/v), pH of about 7.4): 0.1 mM
Minimum Concentration of Additive Required to Prevent Visually Observed Plasmin Precipitation [2, 4]: 1 mM
Molecule: NCCCCCC(=O)O [ε-aminocaproic acid, reference compound]

— patent US20070134231A1, “Method for prolonging activity of autodegradable enzymes and compositions thereof” (priority 2005, published 2007)
